Like-named read-outs stand apart in the source and are kept apart here.
Assays:
[1] = biological target: T1, hMT1 (Homo sapiens, UniProt P48039); assay: cAMP assay (GloSensor), isoproterenol-stimulated cAMP in HEK cells; assay type: cell-based; design: expressed in transfected cells; host or cells: HEK-T (HEK-293 T) cells, co-transfected with GloSensor DNA; details: for hMT1 pEC50: FIG. 3D-3F, transiently expressed receptor, isoproterenol-stimulated cAMP production; for inverse agonist efficacy: at MT1; for selectivity for MT1 over MT2: cAMP, inverse agonists
T1 sequence (P48039 whole entry): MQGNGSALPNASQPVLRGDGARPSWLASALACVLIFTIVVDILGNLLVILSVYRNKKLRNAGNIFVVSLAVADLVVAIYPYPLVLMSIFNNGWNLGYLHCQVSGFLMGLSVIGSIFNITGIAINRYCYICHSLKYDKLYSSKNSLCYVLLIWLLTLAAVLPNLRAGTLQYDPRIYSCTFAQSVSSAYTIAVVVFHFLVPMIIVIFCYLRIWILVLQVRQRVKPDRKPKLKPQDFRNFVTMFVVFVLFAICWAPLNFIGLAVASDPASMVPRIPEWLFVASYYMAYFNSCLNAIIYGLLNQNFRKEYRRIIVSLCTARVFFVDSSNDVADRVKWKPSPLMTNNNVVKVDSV
Description: HEK-293 T cells were maintained with complete Dulbecco's modified Eagle's medium (DMEM), which is composed of 10% fetal bovine serum (FBS), 2 mM L-glutamine, 100 units/ml penicillin G, 100 μg/ml streptomycin at 37° C. in the presence of 5% CO2
MT1 and MT2 receptors were tested using Promega's spilt luciferase based GboSensor cAMP biosensor technology. HEK-T cells were plated in 15 cm cell culture dish (at a density of 18 million cells) containing DMEM composed of 10% dialyzed FBS, 2 mM L-glutamine, 100 units/ml penicillin G, 100 μg/ml streptomycin for 4-6 hour. Then, cells were co-transfected with 8 μg of construct which encodes either MT1 or MT2 (de-Tangonized constructs) and […] of Glosensor DNA. Next day, transfected cells were seeded into poly-L-lysinecoated 384-well white clear bottom cell culture plates with complete DMEM with 1% dialized FBS at a density of 20,000 cells per well for another 24 h. The next day, cell medium were discarded and loaded with 20 μl of assay buffer (1×HBSS, 20 mM HEPES, pH 7.4, 0.1% BSA). To measure agonist activity of MT1 or MT2 receptor, 10 μl of test compound solution at 3× final concentration was added for 15 minutes followed by addition of 10 μl of luciferin/isoproterenol mixture (at a final concentration of 4 mM and 200 nM respectively) for another 15 mins for luminescence quantification. Then, plates were counted using SpectraMax luminescence reader (Molecular Device). Data were analyzed using GraphPad Prism 6.0.

[2] = test system: hMT2; assay: 2-[125I]-iodomelatonin competition binding, CHO cell membranes; details: in 2-[125I]-iodomelatonin binding assays
Description: (§1) For receptor binding studies, '7447 was dissolved in 50% DMSO/50% ethanol for 13 mM stock solution, diluted 1/10 in 100% ethanol then 1/10 again in 50% ethanol/50% Tris-HCl buffer. Both '3384 and '4226 were dissolved in 100% ethanol for 13 mM stock solutions and then diluted 1/10 in 50% ethanol/50% Tris-HCl buffer. Further dilutions were done in Tris-HCl buffer.
(§2) Assays were incubated for 1 hour at 25° C. Bound radioligand was separated from freeby rapidvacuum filtration using glass microfiber filters (Whatman, Krackeler Scientific, Inc., Albany N.Y., USA) saturated in 0.5% polyethylenimine solution.
(§3) Affinity shifts or lack thereof with G protein inactivation indicate apparent efficacy (Lefkowitz, R. J. et al., J Biol Chem 251, 4686-4692, 1976) as ligands are classified as agonists (ΔpKi% MLT>20%), antagonists (ΔpKi% MLT<20%, >−20%), or inverse agonists (ΔpKi% MLT<−20%) accordingly.

[3] = test system: 318 other GPCRs; assay: PRESTO-Tango GPCR-ome counter-screen, agonist mode; assay type: cell-based; details: arrestin recruitment Tango, in words
Description: Screening of compounds in the PRESTO-Tango GPCR-ome was accomplished as previously described (Kroeze, supra). with several modifications. First, HTLA cells were plated in DMEM with 10% FBS and 10 U/mL penicillin-streptomycin. Next, the cells were transfected using an in-plate PEI method (Longo, P. A. et al., Methods Enzymol 529, 227-240, 2013). PRESTO-Tango receptor DNAs were resuspended in OptiMEM and hybridized with PEI prior to dilution and distribution to 384-well plates and subsequent addition to cells. After overnight incubation, drugs were added to cells without replacement of the medium. The remaining steps of the PRESTO-Tango protocol were followed as previously described.

[4] = test system: C3H/HeN mice; assay: Re-entrainment of running wheel activity after 6 h advance of dark onset (jet-lag model); assay type: in vivo; details: 30 μg/mouse s.c., in words; for rate of re-entrainment to the new light-dark cycle: 3 days, WT
Text: Male and female C3H/HeN (C3H) wild-type (WT), MT1 knockout (MT1KO), and MT2 knockout (MT2KO) mice (average 6.28 months) used in this study were raised in our breeding colony at University at Buffalo. […] Genotype was confirmed using tail samples at the end of each experiment and was verified periodically during the tenure of the colony. The strains of mice in our breeding colony were re-derived periodically by backcrossing with WT mice to reduce genetic drift.
Mice were group housed (3-5 per cage) with corncob bedding in polycarbonate translucent cages (30×19 cm) and maintained in a 14/10 light-dark (LD) cycle (Zeitgeber time 0 or ZT0 corresponds to Lights ON and ZT 14 to Lights OFF) in temperature and humidity controlled rooms with ad libitum access to food and water in the Laboratory Animal Facility at the University at Buffalo. Light levels were 200-300 lux at the level of the cage. Treatments and animal care performed in the dark were under a dim red safelight (15 watts, Kodak 1A filter) with illuminance of less than 3-5 lux (Benloucif, S. & Dubocovich, M. L. J Biol Rhythms 11, 113-125, (1996). All experimental procedures using mice were conducted in accordance with guidelines set forth by the National Institutes of Health and approved by the University at Buffalo Institutional Animal Care and Use Committee.
Circadian rhythm phase was determined for each mouse using the onset of running wheel activity defined as CT12 (Circadian Time 12). Running wheel activity was measured continuously via magnetic microswitches detecting wheel revolutions with a computer equipped with Clocklab data collection Software™ (Actimetrics: Wilmette, Ill.). All actigraphy data was visualized and analyzed using ClockLab™ and MATLAB™ software. All mice were individually housed in cages (33×15 cm) equipped with running wheels in light-tight ventilated cabinets with controlled temperature and LD cycles (Phenome Technologies: Skokie, Ill.). Male and female mice were housed in separate cabinets for all experiments.
Male and female C3H WT, MT1KO, and MT2KO mice (3 to 6 months) were maintained under a 12:12 LD cycle for at least 2 weeks prior experimental manipulations to allow stable entrainment to dark onset before advance of the LD cycle. Actigraphy data was recorded as described above and all experiment protocols performed as described (Dubocovich, M. L. et al., J Pineal Res 39, 113-120, 2005). On the first day of treatment, the dark onset was advanced 6 h. […] Post treatment, mice were given 14-20 days to re-entrain running wheel activity onsets to the new dark onset. Using exported running wheel activity onsets from actograms, onset hours advanced each day were determined by subtracting this value each day from the average onset of running wheel activity for 3 days prior to treatment for each mouse. Further, using the data from this calculation combined with visualization of actograms, the number of days to reach stable re-entrainment was determined for each mouse.
All statistical analyses as described in further detail for each experiment were conducted using GraphPad Prism 8™ (La Jolla, Calif.). All data sets were visualized for normality using QQ plots of predicted vs. actual residuals. Actigraphy data was generated for visualization blind to treatment prior to the quantification and statistical analysis stages. […] Data in FIGS. 4F & 4G were compared via a two-way ANOVA (3×2: genotype x treatment) with Tukey's post hoc analyses (P<0.05). […]

[5] = biological target: T1, hMT1; assay: 2-[125I]-iodomelatonin competition binding, CHO cell membranes; details: read-out: Ki at MT1
Description: as §1, §2, §3

[6] = Schild analysis, competitive antagonism of melatonin
[7] = inverse agonist, increase of basal cAMP, read-out: EC50 at MT1

SMILES	hMT1 pEC50 [1]	off-target agonist activity [3]	rate of re-entrainment to the new light-dark cycle [4]	hMT1 Schild slope [1, 6]	inverse agonist efficacy [1] [%]	selectivity for MT1 over MT2 [1] [fold]	EC50 [1, 7] [µM]	Ki ([5]; in the absence of GTP) [µM]	Ki ([5]; with GTP (100 μM)) [µM]	also measured
COc1ccc(Br)c(CNc2cccnc2)c1 [ZINC128734226]	6.83±0.17	–	–	–	–	–	–	–	–	Emax ([1]; HEK293, FIG. 3F, normalized to maximal melatonin effect, read-out: hMT1 Emax): 79 ± 3%; Emax ([1]; HEK293, Table 2, agonist, normalized to melatonin response, read-out: MT1 % Emax (converted)): 79%; Emax ([1]; HEK293, Table 4, agonist, read-out: Emax % MT1): 48%; pIC50 MT1 ([1]; Table 4, agonist): 6.8; MT2/MT1 selectivity [2]: 54
CC(C)c1ccc(CNc2cccc(-c3ncn[nH]3)c2)cc1 [ZINC157673384]	7.68±0.09	Neither of the two inverse agonists had significant activity against any of the 318 receptors	decelerated re-entrainment	0.80±0.04	47	30	0.021	0.938	0.063	hMT1 Emax ([1]; FIG. 3D-3E, normalized to isoproterenol-stimulated basal activity): −47±12%; hMT1 pA2 [1, 6]: 7.9±0.1; MT1 % Emax ([1]; Table 2, cell marked Inverse (inverse agonist)): 47 ± 12%; pEC50 MT1 (IA) ([1]; Table 4, IA (inverse agonist)): 7.7
Clc1ccc(CNc2cccc(-c3nnc[nH]3)c2)c(Br)c1 [ZINC555417447]	7.39±0.10	Neither of the two inverse agonists had significant activity against any of the 318 receptors	decelerated re-entrainment	0.98±0.03	62	50	0.041	0.304	0.0075	effect on re-entrainment in MT1KO mouse ([4]; MT1KO): eliminated; effect on re-entrainment in MT2KO mice ([4]; MT2KO): greater deceleration; Emax ([1]; HEK293, FIG. 3D-3E, normalized to isoproterenol-stimulated basal activity, read-out: hMT1 Emax): -62 ± 13%; Emax ([1]; HEK293, Table 2, cell marked Inverse (inverse agonist), read-out: MT1 % Emax (converted)): 62%; hMT1 pKB [1, 6]: 7.4±0.1; EC50 ([1]; Table 4, IA (inverse agonist), read-out: pEC50 MT1 (IA) (converted)): 0.0501 µM

Source: US20230052740A1, “MODULATORS OF CIRCADIAN RHYTHMS AND USES THEREOF” (The Regents of the University of California, priority 2019, published 2023)
